Reference: patent publication US6620938B1, “Compounds that inhibit GRB2-SHC binding and process for preparing same” (Korea Research Institute of Bioscience and Biotechnology, priority 1999, dated 2003)
pIC50: −log10 of the molar value. “And” between values parts separate entries of the source, which are not always exact repeats. Identical values can stand only once.

Columns and labels:
[1] = molecular target: T1, Grb2-Shc binding (GST-Grb2 fusion protein, [3H]propionylated-hShc peptide) (Homo sapiens, UniProt P62993); assay: Grb2-Shc binding inhibition, scintillation proximity assay; conditions: SPA, competition with [3H]propionylated-hShc peptide for GST-Grb2, room temperature 30 minutes, pH 7.4; read-out: concentration required for inhibiting the Grb2-Shc binding by 50% (IC50)
T1 construct: purchased Santa Cruz Biotech Inc
T1 sequence (P62993 whole entry, the tested form may be a part): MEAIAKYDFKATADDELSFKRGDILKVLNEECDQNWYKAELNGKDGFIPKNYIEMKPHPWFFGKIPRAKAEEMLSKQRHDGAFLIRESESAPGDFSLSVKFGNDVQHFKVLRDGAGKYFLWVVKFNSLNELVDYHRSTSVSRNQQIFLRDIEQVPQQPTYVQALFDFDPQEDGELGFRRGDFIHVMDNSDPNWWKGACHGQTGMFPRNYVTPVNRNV
Protocol: The activity of the inventive compound in inhibiting Grb2-Shc binding was determined in accordance with the scintillation proximity assay method by way of measuring the extents of competitive bindings of [^3H]propionylated-hShc peptide and the inventive compound toward Grb2.
Added to a 1.5 ml eppendorf tube were 10 μl of 0.3 μg GST-Grb2 fusion protein(Santa Cruz Biotech Inc.), 10 μl of SPA PVT antibody-binding beads(Amersham Co.), 10 μl of 0.1 μ Ci [^3H]propionylated-hShc peptide(Amersham Co.), 10 μl of 6 μg anti-GST rabbit IgG(Molecular Probes) and 10 μl of a DMSO solution containing each of the compounds obtained in Example 2 and the total volume was adjusted to 200 μl using SH2 buffer solution(20 mM Tris-HCI, 250 mM NaCl and 0.1% cow serum albumin, pH 7.4). The resulting mixture(sample) was reacted at room temperature for 30 minutes. After the completion of the reaction, the Grb2-Shc binding inhibiting activity was determined by examining the extent of comparative binding of [^3H]propionylated-hShc peptides toward Grb2 proteins, expressed by a unit of count per minute(CPM), with a liquid scintillation counter. The same procedure was repeated in the absence of GST-Grb2(blank) or in the absence of any added compounds(control).
The Grb2-Shc binding inhibiting activity was then calculated in accordance with the following equation: [formula]

[2] = Solubility in solvents (physicochemical characteristics, Table 1)
Excerpt: Based on the above-mentioned spectral data and physicochemical characteristics shown in Table 1, the structures of Compounds(I), (II) and (III) was unequivocally settled. Compounds(II) and (III) are sclerotiorine and isochromopilone, respectively, which are known compounds, while Compound(I) is a novel compound.

phospholipase A2 = conditions: reported in the literature; cited from earlier work

Compound | pIC50 [1] | Insoluble [2] | phospholipase A2 inhibiting activity (phospholipase A2) | Soluble ([2]; solvents in which the compound is soluble)
CCC(C)/C=C(C)/C=C/c1cc2c(cn1)=C(OC)[C@@](C)(OC(C)=O)C(=O)C=2Cl (stereo partly shown) [Compound(I)] | ~5.22 and 5.22 | H2O | – | –
CCC(C)/C=C(C)/C=C/C1=CC2=C(Cl)C(=O)[C@](C)(OC(C)=O)C(=O)C2=CO1 (stereo partly shown) [Compound(II), sclerotiorine] | ~4.92 and 4.92 | H2O | phospholipase A2 inhibiting activity | –
CCC(C)/C=C(C)/C=C/C1=CC2=C(Cl)C(=O)[C@](C)(O)C(OC(C)=O)C2CO1 (stereo partly shown) [Compound(III), isochromopilone IV] | ~4.96 and 4.96 | – | – | CHCl3, EtOAc, and MeOH
